# Assay results reported in publication PMC13081163, “Discovery of a novel Nrf2 activator that modulates mitochondrial function in neurons by regulating DHRS3-Nrf2 interaction after ischemic stroke” (Theranostics, 2026).
# Read-outs that look alike come from different tables or passages of the source.
# Tests used:
# SH-SY5Y cells [1] = assay: Protection against OGD/R damage in SH-SY5Y cells (CCK-8); assay type: cell-based, human
# Description: To mimic ischemic conditions in vitro, cells were washed with PBS and then cultured for 2.5 h at 37 °C in glucose-free medium under anaerobic conditions (5% hydrogen, 90% nitrogen, and 5% carbon dioxide). OGD process was terminated by transferring cells back to normal glucose-containing medium under normoxic conditions (5% CO₂, 37 °C) and maintained for 24 h.
# In the administration group, cells were exposed for 12 h with Cpd.51 prior to OGD. OGD lasted for 2.5 h and the reperfusion lasted for 24 h before the experiment was concluded. Subsequently, cell viability was determined using the cell counting kit-8 (CCK-8, C0039, Beyotime, China). In the experiment to explore the treatment time window, the only difference was the timing of the Cpd.51 treatment, while all other procedures remained unchanged.
# Hek-293T cells were transiently transfected, using Lipofectamine™ 3000 and P3000™ reagent (L3000075, Invitrogen, USA) according to the manufacturer's instructions, with the wild-type, point-mutant and double-mutations constructs of Keap1, DHRS3 or Nrf2 (each at 0.5 ng/μL), respectively. Similarly, to promote the expression of the DHRS3 gene, a DHRS3 expression plasmids (0.5 ng/μL) was transfected as well as the corresponding negative controls into SH-SY5Y cells for 6 h, and further cultured with fresh medium for 18 h according to the manufacturer's instructions.
# [2] = tested on: ARE-luciferase reporter (Nrf2 activation), Hek-293T cells; assay: ARE-luciferase reporter gene assay; assay type: cell-based; settings: Homo sapiens; Hek-293T cells, 12 h after drug treatment
# Description: The Hek-293T cells were cultured in 96-well plates 24 h before transfection with ARE-luciferase reporter plasmid (11548ES03, Yeasen, China) for 48 h according to the manufacturer's instructions. The Firefly luciferase activities was carried out 12 h after the drug treatment, as described by the manufacturer (11412ES81, Yeasen, China).
# [3] = design: method as in PMID 37155124; settings: clinical; cited from earlier work
# [4] = design: method as in PMID 40455368; settings: 28-day, oral 10 mg/kg, rats; cited from earlier work
# [5] = Acute (7-day i.v.) toxicity in rats; assay type: in vivo, rat; settings: 10 mg/kg i.v. daily for 7 days
# Description: Cpd.51 was dissolved in solvent (10% DMSO, 10% Solutol HS-15 and 80% saline). It was injected (i.v.) at dose of 3 mg/kg or 5 mg/kg in a 0.5 mL volume. The Sham group and Vehicle group were treated simultaneously with an equal volume of solvent. In the experiment to explore the treatment time window, we merely administered the drug to the rats at different time points, while all other procedures remained unchanged. In the short-term toxicity study, 10 mg/kg Cpd.51 and Oma were administered via tail vein injection at 0.5 mL daily for 7 consecutive days.
# Glutamic-pyruvic transaminase (GPT) kits (ml092635, mlbio, China), glutamic oxaloacetic transaminase (GOT) kits (ml092714, mlbio, China), creatinine (CRE) kits (M12C4L, mlbio, China) and blood urea nitrogen (BUN) kits (ml076479, China) were used to detect the serum of rats in order to evaluate liver and kidney functions. Male and female rats were randomly divided into Sham group, Cpd.51 group and Oma group. Doses were administered once daily at 10 mg/kg and body weights were recorded accordingly. Sham groups were given the same volume of solvent. After 7 days, the […] were sacrificed, serum was collected and tested according to the instructions.
# SH-SY5Y cells [6] = assay: Cytotoxicity in SH-SY5Y cells, 24 h incubation; assay type: cell-based; settings: Homo sapiens
# tMCAO rats = assay: Long-term recovery after tMCAO (survival, body weight, behaviour); assay type: in vivo, rat; settings: 5 mg/kg tail vein injection for 7 d
# Description: To assess the degree of neurological impairment, we conducted modified Neurological Severity Score (mNSS) according to previous experience. The investigator was blinded to the grouping situation during the whole experiment.
# On postoperative day 3 two wooden boards of identical size were joined at a 30° angle, with a narrow gap retained at the junction. The rat was positioned facing the apex of the angle. When it advanced into the deeper part of the angle, bilateral whisker contact with the boards triggered a characteristic rearing response, followed by a turn to face the opposite direction. Each rat underwent 15 trials, and the number of right turns was recorded. The higher the right-turn ratio, the more severe the injury.
# Rats were placed on a horizontal, stainless steel wire grid. The grid was then smoothly rotated 180 degrees to an inverted position and held stationary at a height of 0.8 m. A stopwatch was started immediately upon inversion to measure the latency to fall. The test was terminated if the animal remained on the grid for 60 s, at which point it was gently returned to its home cage, and a score of 60 s was recorded.
# The Y-maze apparatus consisted of three symmetrically arranged enclosed arms (typically labeled Arms A, B, and C), each positioned 120° apart. At the start of each trial, the subject was placed in Arm A and allowed to move freely through the maze for 8 min. Spatial working memory was evaluated by calculating the spontaneous alternation rate, using the following formula:
# Following a 2 h acclimation period, the rats were within an open field cubic box (100 × 100 × 40 cm^3) and allowed 5 min of unrestricted movement. The travel distance and the time spent in the central area were recorded.
# The spatial learning and memory of rats were assessed using the Morris water maze (MWM) from post-operative days 23 to 26. Over four consecutive days, animals underwent training trials in which they were required to locate a submerged escape platform within 60 s. Each rat was gently placed into the water facing the pool wall. If the rat found the platform and remained on it for 10 s, the escape latency was recorded. If the platform was not found within 60 s, the rat was guided onto it and allowed to stay for 10 s, and the latency was recorded as 60 s. Following the training phase, the platform was removed, and a visual spatial memory test lasting for 60 s was conducted to assess the retention of memory. The number of platform-location crossings and the time spent in the target quadrant were recorded and analyzed.
# [7] = 28-day long-term toxicity in rats (intragastric); assay type: in vivo, rat; settings: 28 days intragastric
# Description: During the long-term toxicity test, rats in each group received daily intragastric administration for 28 consecutive days. Animals in the Sham group were administered a mixture of 99% sesame oil and 1% DMSO at a volume of 0.5 mL per rat. Rats in the remaining groups were intragastrically administered varying doses of the respective therapeutic agents.
# During the 28-day long-term toxicity study, rats were euthanized following the completion of continuous intragastric administration. Livers and kidneys from both male and female rats in each group were photographed for macroscopic examination, and serum samples were collected for subsequent kit-based analysis. The liver/kidney index was obtained by dividing the weight of the liver/kidney by the body weight.
# [8] = cited from earlier work
# [9] = target: T1, Human recombinant Keap1 proteins (Homo sapiens, UniProt Q14145); assay: SPR binding to full-length Keap1; design: purchased Sinobiological ME18DE0203; settings: read-out: KD of Oma (Keap1)
# T1 sequence (Q14145 whole entry, the tested form may be a part): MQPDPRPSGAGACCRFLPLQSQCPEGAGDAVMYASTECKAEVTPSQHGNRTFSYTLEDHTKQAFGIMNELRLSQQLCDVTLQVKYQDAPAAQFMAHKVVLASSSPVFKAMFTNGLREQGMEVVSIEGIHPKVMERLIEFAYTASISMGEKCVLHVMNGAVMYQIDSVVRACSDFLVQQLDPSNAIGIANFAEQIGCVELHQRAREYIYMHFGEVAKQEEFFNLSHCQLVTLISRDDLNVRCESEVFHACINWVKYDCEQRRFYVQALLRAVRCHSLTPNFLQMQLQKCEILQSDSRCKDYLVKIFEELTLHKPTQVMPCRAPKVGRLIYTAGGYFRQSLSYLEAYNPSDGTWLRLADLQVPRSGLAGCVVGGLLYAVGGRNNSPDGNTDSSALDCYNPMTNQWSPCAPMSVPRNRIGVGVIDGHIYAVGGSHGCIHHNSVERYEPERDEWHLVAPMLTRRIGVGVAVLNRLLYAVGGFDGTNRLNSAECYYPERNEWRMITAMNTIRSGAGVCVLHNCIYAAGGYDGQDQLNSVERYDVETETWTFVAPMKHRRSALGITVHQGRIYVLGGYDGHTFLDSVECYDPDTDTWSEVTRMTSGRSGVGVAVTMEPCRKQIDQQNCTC
# Description: The binding affinity of Cpd.51 or Oma to Keap1 proteins were measured using a Biacore T200. The overall experimental procedures were based on previous reports, [28]. Human recombinant Keap1 proteins or truncated form of Keap1 (residues 48-180 and residues 48-149) were captured on a CM5 chip by a standard amine coupling procedure. Binding sensorgrams were recorded by injecting various concentrations of Cpd.51 over the immobilized proteins surface. The dissociation constant was obtained by globally fitting the data (to the 1:1 Langmuir binding model using the Biacore Insight evaluation software (Cytiva, Marlborough, MA, USA). Affinity tests for Cpd.51 and DHRS3 were also performed using the aforementioned method.
# [10] = target: T1, Human recombinant Keap1 proteins; settings: cited from earlier work
# [11] = Oma 10 mg/kg, Cpd.51 1, 3 and 10 mg/kg
# Nrf2, sequence (Q16236 whole entry): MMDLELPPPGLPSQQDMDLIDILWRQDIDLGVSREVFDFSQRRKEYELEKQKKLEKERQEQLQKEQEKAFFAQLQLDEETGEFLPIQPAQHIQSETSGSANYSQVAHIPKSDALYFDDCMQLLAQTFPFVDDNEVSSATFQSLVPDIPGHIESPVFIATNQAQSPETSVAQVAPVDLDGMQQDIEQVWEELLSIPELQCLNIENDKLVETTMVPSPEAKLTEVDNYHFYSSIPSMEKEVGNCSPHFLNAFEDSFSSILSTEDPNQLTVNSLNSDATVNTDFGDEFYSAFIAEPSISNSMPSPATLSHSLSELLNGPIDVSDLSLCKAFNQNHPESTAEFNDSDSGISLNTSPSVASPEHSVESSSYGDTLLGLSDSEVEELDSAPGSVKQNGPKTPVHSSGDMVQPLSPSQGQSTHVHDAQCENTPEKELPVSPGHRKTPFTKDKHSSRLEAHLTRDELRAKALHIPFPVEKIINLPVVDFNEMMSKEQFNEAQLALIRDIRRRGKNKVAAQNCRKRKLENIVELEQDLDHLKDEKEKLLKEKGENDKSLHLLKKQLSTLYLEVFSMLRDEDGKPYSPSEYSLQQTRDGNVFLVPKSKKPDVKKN
Molecule,"OGD/R damage when administered at different time points (SH-SY5Y cells [1]; 100 nM, CCK-8)","EC50 (SH-SY5Y cells [1]; Homo sapiens, SH-SY5Y, read-out: EC50 against OGD/R damage) [nM]",EC50 [2] [nM],apparent volume of distribution (Vd) [3] [L/kg],terminal half-life (T1/2) [3] [h],"hepatotoxicity (liver weight, plasma ALT) [4]","liver hypertrophy, serum GPT and GOT [5]",serum CRE and BUN [5],weight gain [5],IC50 (SH-SY5Y cells [6]) [nM],"body weight and mNSS scores, long-term (tMCAO rats)","corner, inverted screen, Y maze and open field tests (tMCAO rats; vs model group)","liver and kidney indices ([7]; 10 mg/kg, female and male rats)","body weight [7, 11]","plasma markers of hepatic and renal injury [7, 11]",patients developing liver injury during clinical trials [8],Kd [9] [nM],Kd [10] [nM]
"CC1(C)CC[C@]2(NC(=O)C(C)(F)F)CC[C@]3(C)[C@H](C(=O)C=C4[C@@]5(C)C=C(C#N)C(=O)C(C)(C)[C@@H]5CC[C@]43C)[C@@H]2C1 [Oma, Omaveloxolone, reference compound]",consistently alleviated OGD/R damage,80.8,104,~105,~57,induced hepatotoxicity,marked liver hypertrophy and elevated serum levels of glutamic-pyruvic transaminase (GPT) and glutamic oxaloacetic transaminase (GOT),increased serum creatinine (CRE) and blood urea nitrogen (BUN) levels,suppressed weight gain,758,significantly improved body weight and mNSS scores,"exhibited improvements in neurological deficits, motor abilities, and spatial working and reference memory",markedly increased the liver and kidney indices,neither compound significantly affected body weight,significantly elevated plasma markers of hepatic and renal injury,~ 37%,21.7,
Nrf2 (from UniProt Q16236),,,,,,,,,,,,,,,,,,19
